The source of these data is patent EP0378255B1, “2-Aminopyrimidinone derivatives” (JANSSEN PHARMACEUTICA N.V., priority 1989, dated 1990).

Each structure is given as a SMILES string. Like-named read-outs stand apart in the source and are kept apart here.

What all share (type): in vivo
One assay has as its system Norepinephrine. Put plainly: Combined Apomorphine, Tryptamine and Norepinephrine (ATN) test in rats: norepinephrine part. As to conditions: Rattus norvegicus; read-out: Combined ATN test in rats ED₅₀ values (NOR). The protocol: (§1) Int. Pharmacodyn. Ther., 227, 238-253, 1977. Further the activity of the subject compounds as serotonin antagonists is evidenced by the experimental data obtained in the "Gastric Lesions induced by compound 48/80 in rats" test, described in U.S.-4,335,127. […] All tests were carried out following the procedures described in the cited references and the experimental data are shown in Table 8.

For the next assay, the system named is Tryptamine. Put plainly: Combined Apomorphine, Tryptamine and Norepinephrine (ATN) test in rats: tryptamine part. As to conditions: Rattus norvegicus.
For assay [1], the system named is compound 48/80. Put plainly: Gastric Lesions induced by compound 48/80 in rats (serotonin antagonism). As to conditions: Rattus norvegicus, read-out: Compound 48/80 tests ED₅₀ values Gastric lesions. The protocol: as §1
In a further assay the test system is Apomorphine. Put plainly: Combined Apomorphine, Tryptamine and Norepinephrine (ATN) test in rats: apomorphine part. The note with it: Rattus norvegicus; read-out: Combined ATN test in rats ED₅₀ values (APO).
Assay [2] concerns compound 48/80. Put plainly: Protection of Rats from compound 48/80 induced lethality (antihistaminic activity). As to conditions: Rattus norvegicus, read-out: Compound 48/80 tests ED₅₀ values Lethality. The protocol:
as §1

Another assay deals with Wistar rats. Put plainly: Sleep-wakefulness patterns in the rat (polygraphic EEG/EOG/EMG recording). The note with it: for MEAN DURATION OF EPISODES PS / MEAN DURATION OF EPISODES SWS1 / MEAN DURATION OF EPISODES SWS2 / MEAN DURATION OF EPISODES W / NUMBER OF EPISODES PS / NUMBER OF EPISODES SWS1 / NUMBER OF EPISODES SWS2 / NUMBER OF EPISODES W: means ± SEM of 10 rats. The protocol: Under pentobarbital anesthesia (50 mg/kg i.p.) 10 adult male Wistar rats weighing 240 to 260 g were chronically implanted for standard polygraphic recording of electroencephalogram (EEG), electro-oculogram (EOG) and electromyogram (EMG). After a 8-10 day recovery period from surgery and habituation to the recording conditions ( 12 h light-dark schedule, light on at 9:00 am.), pharmacological tests were started. The animals received 0.04, 0.16 or 0.63 mg/kg of compound 39 dissolved in 1 mM tartaric acid and injected i.p. at the onset of the light period. A minimum of 3 recovery days was allowed between two treatments. Polygraphic recordings were scored visually and classified as being either wakefulness (W), light slow wave sleep (SWS1), deep slow wave sleep (SWS2) or paradoxical sleep (PS). Sleep-wakefulness parameters were analyzed for each of the two successive 4 h periods following the treatment and compared to baseline (vehicle injection under the same conditions). The amounts of sleep and wakefulness states were expressed as percentage of baseline recordings which represented means of two baseline values per animal. Statistical tests were performed by means of the two-tailed Student t-test.

[3] abbreviates: convulsions, read-out: Combined ATN test in rats ED₅₀ values (TRY) convulsions.
[4] abbreviates: hyperaemia, read-out: Combined ATN test in rats ED₅₀ values (TRY) hyperaemia.
The mark [5] stands for this setting: 0-4h after treatment, 0.04 mg/kg i.p.
Where [6] appears, read: 0-4h after treatment, 0.16 mg/kg i.p.
Where [7] appears, read: 0-4h after treatment, 0.63 mg/kg i.p.
[8] abbreviates: 4-8h after treatment, 0.04 mg/kg i.p.
The mark [9] stands for this setting: 4-8h after treatment, 0.16 mg/kg i.p.
The mark [10] stands for this setting: 4-8h after treatment, 0.63 mg/kg i.p.

As for `Cc1nc2n(C)nc(C)n2c(=O)c1CCN1CCC(c2noc3cc(F)ccc23)CC1` [Compound 88], the ED50 amounted to 0.16 mg/kg with Norepinephrine; 0.08 mg/kg in the assay with Tryptamine (setting [3]); 0.00125 mg/kg in the assay with Tryptamine (setting [4]); 0.04 mg/kg in the assay on compound 48/80 [1]; 0.08 mg/kg with Apomorphine.

Turning to `CC1=NN(C)c2nc(C)c(CCN3CCC(c4noc5cc(F)ccc45)CC3)c(=O)n2C1` [Compound 86], the ED50 came to 0.08 mg/kg in the assay with Norepinephrine; 0.04 mg/kg with Tryptamine (setting [3]); 0.00125 mg/kg in the assay on Tryptamine (setting [4]); 0.02 mg/kg with compound 48/80 [1]; 0.04 mg/kg in the assay on Apomorphine.

For the compound `CC(=O)Nc1nc(C)c(CCN2CCC(C(=O)c3ccc(F)cc3)CC2)c(=O)n1C` [Compound 34], the ED50 with Norepinephrine was determined as 1.25 mg/kg; with Tryptamine (setting [3]) it was 0.31 mg/kg; in the assay on Tryptamine (setting [4]), 0.005 mg/kg; with compound 48/80 [1] it was 0.04 mg/kg; in the assay on Apomorphine it was 0.31 mg/kg.

Regarding `Cc1nc2n(C)ncn2c(=O)c1CCN1CCN(c2noc3ccccc23)CC1` [Compound 114], the ED50 in the assay on Norepinephrine is 1.25 mg/kg; in the assay with Tryptamine (setting [3]), 0.31 mg/kg; in the assay on Tryptamine (setting [4]), at most 0.04 mg/kg; with compound 48/80 [1], 0.16 mg/kg; in the assay with Apomorphine it was 0.08 mg/kg.

With `CCNc1nc(C)c(CCN2CCN(c3noc4ccccc34)CC2)c(=O)n1C` [Compound 69], the ED50 in the assay with Norepinephrine was found to be 0.31 mg/kg; in the assay on compound 48/80 [2] it was 0.02 mg/kg; with Tryptamine (setting [3]), 0.31 mg/kg; in the assay with Tryptamine (setting [4]) it was 0.00125 mg/kg; in the assay on compound 48/80 [1] it was 0.00125 mg/kg; with Apomorphine, 0.08 mg/kg.

`Cc1nc2n(C)c(C)cn2c(=O)c1CCN1CCN(c2noc3ccccc23)CC1` [Compound 111]: the ED50 in the assay with Norepinephrine turned out to be 0.31 mg/kg; in the assay with Tryptamine (setting [3]) it was 0.31 mg/kg; in the assay on Tryptamine (setting [4]), 0.005 mg/kg; in the assay with compound 48/80 [1], 0.16 mg/kg; with Apomorphine it was 0.08 mg/kg.

For `CNc1nc(C)c(CCN2CCC(=C(c3ccc(F)cc3)c3ccc(F)cc3)CC2)c(=O)n1C` [Compound 39, 5-[2-[4-[bis(4-fluorophenyl)methylene]-1-piperidinyl]ethyl]-3,6-dimethyl-2-(methylamino)-4(3H)-pyrimidinone], in the assay with Wistar rats (setting [5]), the “MEAN DURATION OF EPISODES PS” value was found to be 2.1 ± 0.2 min, the “MEAN DURATION OF EPISODES SWS1” value amounted to 0.8 ± 0.0 min, the “MEAN DURATION OF EPISODES SWS2” value was found to be 4.7 ± 0.5 min and the “MEAN DURATION OF EPISODES W” value was 2.6 ± 0.3 min. Further, in the assay with Wistar rats (setting [5]), the “NUMBER OF EPISODES PS” value is on record as 4±1, the “NUMBER OF EPISODES SWS1” value is 33±3, the “NUMBER OF EPISODES SWS2” value came to 32±3 and the “NUMBER OF EPISODES W” value worked out at 26±3. Also, in the assay with Wistar rats (setting [6]), the “MEAN DURATION OF EPISODES PS” value stood at 2.0 ± 0.3 min, the “MEAN DURATION OF EPISODES SWS1” value was determined as 0.9 ± 0.0 min, the “MEAN DURATION OF EPISODES SWS2” value was determined as 5.8 ± 0.5 min and the “MEAN DURATION OF EPISODES W” value turned out to be 2.9 ± 0.3 min. In the assay with Wistar rats (setting [6]), the “NUMBER OF EPISODES PS” value is reported as 3±1, the “NUMBER OF EPISODES SWS1” value is 28±2, the “NUMBER OF EPISODES SWS2” value worked out at 27±2 and the “NUMBER OF EPISODES W” value turned out to be 23±1. Besides, in the assay on Wistar rats (setting [7]), the “MEAN DURATION OF EPISODES PS” value was found to be 2.2 ± 0.4 min, the “MEAN DURATION OF EPISODES SWS1” value came out at 0.8 ± 0.0 min, the “MEAN DURATION OF EPISODES SWS2” value came to 5.9 ± 0.4 min and the “MEAN DURATION OF EPISODES W” value came out at 2.7 ± 0.2 min. Also, in the assay on Wistar rats (setting [7]), the “NUMBER OF EPISODES PS” value is 3±1, the “NUMBER OF EPISODES SWS1” value came to 26±2, the “NUMBER OF EPISODES SWS2” value is 27±2 and the “NUMBER OF EPISODES W” value is 22±1. Also, in the assay with Wistar rats (0.04, 0.16 or 0.63 mg/kg i.p., two-tailed Student t-test), the “doses giving significant effects” value was “Significant effects were observed from the lowest dose upwards”. In addition, the dose-related response entry in the assay on Wistar rats (0.04 to 0.63 mg/kg i.p.) is “a clear dose-related response was obtained”. For the same compound, the “sleep-wakefulness changes (SWS2, W, SWS1, PS)” value in the assay on Wistar rats (0.04 to 0.63 mg/kg i.p. at the onset of the light period, 8 h recording period) was “dose-dependent increase of SWS2 combined with a dose-related deficit in W, SWS1 and PS”. The “SWS2 episodes: duration and number” value in the assay with Wistar rats (0.04 to 0.63 mg/kg i.p., summary of Table 7) is given as “marked prolongation of SWS2 episodes, whereas the number of episodes was reduced”. In addition, in the assay with Wistar rats (setting [8]), the “MEAN DURATION OF EPISODES PS” value came out at 1.9 ± 0.1 min, the “MEAN DURATION OF EPISODES SWS1” value amounted to 0.7 ± 0.0 min, the “MEAN DURATION OF EPISODES SWS2” value amounted to 3.5 ± 0.2 min and the “MEAN DURATION OF EPISODES W” value stood at 2.0 ± 0.2 min. For the same compound, in the assay on Wistar rats (setting [8]), the “NUMBER OF EPISODES PS” value is given as 13±1, the “NUMBER OF EPISODES SWS1” value was determined as 35±3, the “NUMBER OF EPISODES SWS2” value was found to be 41±3 and the “NUMBER OF EPISODES W” value is 26±2. In the assay on Wistar rats (setting [9]), the “MEAN DURATION OF EPISODES PS” value is 2.1 ± 0.1 min, the “MEAN DURATION OF EPISODES SWS1” value was determined as 0.7 ± 0.0 min, the “MEAN DURATION OF EPISODES SWS2” value worked out at 3.9 ± 0.3 min and the “MEAN DURATION OF EPISODES W” value worked out at 2.0 ± 0.3 min. For the same compound, in the assay on Wistar rats (setting [9]), the “NUMBER OF EPISODES PS” value came out at 12±1, the “NUMBER OF EPISODES SWS1” value is listed as 35±2, the “NUMBER OF EPISODES SWS2” value is 39±2 and the “NUMBER OF EPISODES W” value worked out at 23±2. Moreover, in the assay with Wistar rats (setting [10]), the “MEAN DURATION OF EPISODES PS” value came out at 2.1 ± 0.1 min, the “MEAN DURATION OF EPISODES SWS1” value came out at 0.7 ± 0.0 min, the “MEAN DURATION OF EPISODES SWS2” value came to 3.7 ± 0.2 min and the “MEAN DURATION OF EPISODES W” value turned out to be 1.9 ± 0.2 min. Further, in the assay on Wistar rats (setting [10]), the “NUMBER OF EPISODES PS” value is listed as 12±1, the “NUMBER OF EPISODES SWS1” value was found to be 34±2, the “NUMBER OF EPISODES SWS2” value amounted to 40±2 and the “NUMBER OF EPISODES W” value is on record as 26±2. For the same compound, in the assay on Wistar rats (comparison with ritanserin), the “effective dose, lower than that of ritanserin by” value is recorded as 10 fold. The sleep-wakefulness response entry in the assay with Wistar rats (doses of 0.04 and 0.16 mg/kg i.p.) is “significant sleep-wakefulness response”.

In the case of `Cc1nc2n(c(=O)c1CCN1CCC(c3noc4cc(F)ccc34)CC1)CCN2C` [Compound 80], the ED50 turned out to be 0.31 mg/kg with Norepinephrine; 0.005 mg/kg in the assay on compound 48/80 [2]; 0.08 mg/kg with Tryptamine (setting [3]); 0.00125 mg/kg in the assay with Tryptamine (setting [4]); 0.04 mg/kg in the assay with compound 48/80 [1]; 0.08 mg/kg with Apomorphine.
